Data as given in paper PMC9220351, “Evaluation of a Conformationally Constrained Indole Carboxamide as a Potential Efflux Pump Inhibitor in Pseudomonas aeruginosa” (Antibiotics, 2022).

Assays:
[1] = test system: 34 MDR P. aeruginosa clinical isolates (CDC & FDA AR Isolate Bank); assay: microbe, parasite or virus in culture; type: cell-based, Pseudomonas aeruginosa; settings: for Levofloxacin MIC fold difference: + labelled EPI […] (TXA09155 head: 50 µg/mL); for Levofloxacin MIC: alone or + labelled EPI […] (TXA09155 head: 50 µg/mL)
Source text: P. aeruginosa ATCC 27853 was obtained from the American Type Culture Collection (ATCC; Manassas, VA, USA). P. aeruginosa multidrug-resistant isolates were obtained from the CDC and FDA Antibiotic Resistance Isolate Bank (Atlanta, GA, USA). P. aeruginosa DA7232 (gyrA-T83I, parC-S80L) was a kind gift from Prof. Dan I. Andersson, Uppsala University, Uppsala, Sweden, and has been characterized elsewhere. P. aeruginosa strains K767 (WT), K1455 (mexAB-oprM overexpressed), K2415 (mexXY-oprM overexpressed), and K3698 (oprM∆) were obtained from Prof. Keith Poole, Queen’s University, Kingston, Ontario, Canada and have been characterized elsewhere. Bacterial cells were grown in cation-adjusted Mueller Hinton (CAMH) media, brain heart infusion broth (BHI), or tryptic soy agar (TSA) plates were all obtained from Becton, Dickinson, and Company (BD; Franklin Lakes, NJ, USA). […] Azithromycin was purchased from Tokyo Chemical Industry (Portland, OR, USA). […] Ethidium bromide (EtBr) and glucose were purchased from VWR (Radnor, PA, USA). MC-04,124 and TXA01182 were synthesized at TAXIS Pharmaceuticals. Carbonyl cyanide 3-chlorophenylhydrazone (CCCP) was purchased from Enzo Life Sciences (Farmingdale, NY, USA). DiOC2 (3) and propidium iodide were obtained from Thermo Fisher Scientific (Waltham, MA, USA).
MIC assays were performed as described previously.

P. aeruginosa ATCC 27853 = type: cell-based, Pseudomonas aeruginosa; settings: levofloxacin 4 μg/mL + EPI […]
Procedure: All resistant colonies were verified by determining the MIC to TXA09155. […] This two-component system regulates the expression of more than 100 genes in P. aeruginosa, including genes that code for efflux components (mexX), and plays a role in the resistance to cationic antimicrobial peptides and aminoglycoside antibiotics.
The frequency of resistance studies was carried out as described previously.

NCCC[C@H](N)CNC(=O)c1cc2ccc(-c3ccc(F)cc3)cc2[nH]1 [TXA01182]
16 µg/mL: Levofloxacin MIC ([1]; strain AR-0230) | Levofloxacin MIC ([1]; strain AR-0240) | Levofloxacin MIC ([1]; strain AR-0241) | Levofloxacin MIC ([1]; strain AR-0246) | Levofloxacin MIC ([1]; strain AR-0250) | Levofloxacin MIC ([1]; strain AR-0260)
4: Levofloxacin MIC fold difference ([1]; strain AR-0230) | Levofloxacin MIC fold difference ([1]; strain AR-0236) | Levofloxacin MIC fold difference ([1]; strain AR-0241) | Levofloxacin MIC fold difference ([1]; strain AR-0245) | Levofloxacin MIC fold difference ([1]; strain AR-0246) | Levofloxacin MIC fold difference ([1]; strain AR-0250) | Levofloxacin MIC fold difference ([1]; strain AR-0258) | Levofloxacin MIC fold difference ([1]; strain AR-0260) | Levofloxacin MIC fold difference ([1]; strain AR-0266) | Levofloxacin MIC fold difference ([1]; strain AR-0271) | Levofloxacin MIC fold difference ([1]; strain AR-0272)
0.125 µg/mL: Levofloxacin MIC ([1]; strain AR-0253) | Levofloxacin MIC ([1]; strain AR-0258) | Levofloxacin MIC ([1]; strain AR-0259)
<3.33 × 10^−9: Frequency of resistance, Levofloxacin (4 μg/mL) + TXA01182 ([…]) (P. aeruginosa ATCC 27853)
16: Levofloxacin MIC fold difference ([1]; strain AR-0244) | Levofloxacin MIC fold difference ([1]; strain AR-0252) | Levofloxacin MIC fold difference ([1]; strain AR-0253) | Levofloxacin MIC fold difference ([1]; strain AR-0261) | Levofloxacin MIC fold difference ([1]; strain AR-0262) | Levofloxacin MIC fold difference ([1]; strain AR-0267) | Levofloxacin MIC fold difference ([1]; strain AR-0270)
0.25 µg/mL: Levofloxacin MIC ([1]; strain AR-0262)
8 µg/mL: Levofloxacin MIC ([1]; strain AR-0229) | Levofloxacin MIC ([1]; strain AR-0236) | Levofloxacin MIC ([1]; strain AR-0239) | Levofloxacin MIC ([1]; strain AR-0244) | Levofloxacin MIC ([1]; strain AR-0249) | Levofloxacin MIC ([1]; strain AR-0265) | Levofloxacin MIC ([1]; strain AR-0266) | Levofloxacin MIC ([1]; strain AR-0271)
4 µg/mL: Levofloxacin MIC ([1]; strain AR-0264) | Levofloxacin MIC ([1]; strain AR-0269) | Levofloxacin MIC ([1]; strain AR-0272)
2: Levofloxacin MIC fold difference ([1]; strain AR-0231)
0.5 µg/mL: Levofloxacin MIC ([1]; strain AR-0233) | Levofloxacin MIC ([1]; strain AR-0261)
64: Levofloxacin MIC fold difference ([1]; strain AR-0247)
0.062 µg/mL: Levofloxacin MIC ([1]; strain AR-0256)
2 µg/mL: Levofloxacin MIC ([1]; strain AR-0242) | Levofloxacin MIC ([1]; strain AR-0248) | Levofloxacin MIC ([1]; strain AR-0252) | Levofloxacin MIC ([1]; strain AR-0267) | Levofloxacin MIC ([1]; strain AR-0270)
32 µg/mL: Levofloxacin MIC ([1]; strain AR-0231) | Levofloxacin MIC ([1]; strain AR-0245)
0.031 µg/mL: Levofloxacin MIC ([1]; strain AR-0247)
1 µg/mL: Levofloxacin MIC ([1]; strain AR-0232) | Levofloxacin MIC ([1]; strain AR-0234)
1: Levofloxacin MIC fold difference ([1]; strain AR-0259)
8: Levofloxacin MIC fold difference ([1]; strain AR-0229) | Levofloxacin MIC fold difference ([1]; strain AR-0232) | Levofloxacin MIC fold difference ([1]; strain AR-0233) | Levofloxacin MIC fold difference ([1]; strain AR-0234) | Levofloxacin MIC fold difference ([1]; strain AR-0239) | Levofloxacin MIC fold difference ([1]; strain AR-0240) | Levofloxacin MIC fold difference ([1]; strain AR-0242) | Levofloxacin MIC fold difference ([1]; strain AR-0248) | Levofloxacin MIC fold difference ([1]; strain AR-0249) | Levofloxacin MIC fold difference ([1]; strain AR-0256) | Levofloxacin MIC fold difference ([1]; strain AR-0264) | Levofloxacin MIC fold difference ([1]; strain AR-0265) | Levofloxacin MIC fold difference ([1]; strain AR-0269)
